{
  "source": "patent US11242365B2",
  "about": "“FOXM1-derived peptide, and vaccine including same” (OncoTherapy Science, Inc., priority 2015, dated 2022)",
  "key": {"peptide-pulsed C1R-A01": {"test_system": "peptide-pulsed C1R-A01", "assay": "In vitro CTL induction, IFN-gamma ELISPOT assay (HLA-A*01:01)", "assay_type": "cell-based, human", "settings": "CD8 positive T cells of HLA-A*01:01-positive donors after three stimulations with peptide-pulsed DCs; peptide-pulsed vs non-pulsed C1R-A01", "description": "Monocyte-derived dendritic cells (DCs) were used as the antigen-presenting cell to induce a specific cytotoxic T lymphocyte (CTL) against peptides presented on human leukocyte antigens (HLAs). As already reported in literatures, DCs were generated in vitro (Nakahara S et al., Cancer Res 2003, 63(14): 4112-8). Specifically, peripheral-blood mononuclear cells (PBMCs) collected from healthy volunteers (HLA-A*01:01-positive) were seeded in plastic tissue culture dishes (Corning) to let the monocytes in the PBMCs adhere to the dishes. This was cultured in the presence of 1000 IU/ml granulocyte macrophage colony-stimulating factor (R&D System) and 1000 IU/ml interleukin (IL)-4 (R&D System) for seven days. An AIM-V medium (Invitrogen) containing 5% inactivated AB-type serum (ABS) was used as the medium. DCs that were induced to differentiate from monocytes using the cytokines were pulsed with 20 micro-g/ml of each synthesized peptide (37 degrees C., three hours). Peptide pulsing was carried out in an AIM-V medium containing 3 micro-g/ml beta 2-microglobulin. These peptide-pulsed DCs were inactivated by X-ray irradiation (20 Gy), mixed in a 1:20 ratio with autologous CD8 positive T cells obtained by using the CD8 Positive Isolation Kit (Invitrogen) (1.5×10^4 DCs and 3×10^5 CD8 positive T cells), and cultured in a 48-well plate (Corning). […]"}, "peptide-pulsed C1R-A33": {"test_system": "peptide-pulsed C1R-A33", "assay": "In vitro CTL induction, IFN-gamma ELISPOT assay (HLA-A*33:03)", "assay_type": "cell-based, human", "settings": "CD8 positive T cells of HLA-A*33:03-positive donors after three stimulations with peptide-pulsed DCs; peptide-pulsed vs non-pulsed C1R-A33", "description": "Monocyte-derived dendritic cells (DCs) were used as the antigen-presenting cell to induce a specific cytotoxic T lymphocyte (CTL) response against peptides presented on human leukocyte antigens (HLAs). As already reported in literatures, DCs were generated in vitro (Nakahara S et al., Cancer Res 2003, 63(14): 4112-8). Specifically, peripheral-blood mononuclear cells (PBMCs) collected from healthy volunteers (HLA-A*33:03-positive) with the Ficoll-Paque plus solution (Pharmacia) were seeded in plastic tissue culture dishes (Corning) to let the monocytes in the PBMCs adhere to the dishes. This was cultured in the presence of 1000 IU/ml granulocyte macrophage colony-stimulating factor (R&D System) and 1000 IU/ml interleukin (IL)-4 (R&D System) for seven days. An AIM-V medium (Invitrogen) containing 5% inactivated AB-type serum (ABS) was used as the medium. DCs that were induced to differentiate from monocytes using the cytokines were pulsed with 20 micro-g/ml of each synthesized peptide (37 degrees C., three hours). Peptide pulsing was carried out in an AIM-V medium containing 3 micro-g/ml beta 2-microglobulin. These peptide-pulsed DCs were inactivated by X-ray irradiation (20 Gy), mixed in a 1:20 ratio with autologous CD8 positive T cells obtained by positive selection using the CD8 Positive Isolation Kit (Invitrogen) (1.5×10^4 DCs and 3×10^5 CD8 positive T cells), and cultured in a 48-well plate (Corning). Each well contained 0.5 ml of the 5% ABS/AIM-V medium, and IL-7 (R&D System) was added thereto (final concentration: 10 ng/ml). Two days after the start of the culture, IL-2 (Novartis) was added (final concentration: 20 IU/ml). On day 7 and day 14 of culture, the CD8 positive T cells were further stimulated with peptide-pulsed DCs. The DCs were prepared at the time of use by the same method as above. […]"}, "[1]": {"test_system": "target cells (C1R-A01) pulsed with peptide", "assay": "IFN-gamma ELISA of CTL clones established by limiting dilution (HLA-A*01:01)", "assay_type": "cell-based, human", "settings": "CTL clone against peptide-pulsed C1R-A01; listed as FOXM1-A01-9-233", "description": "(§1) After induction of CTLs in vitro, the CTLs were seeded onto 96-well round-bottomed microplates (Nalge Nunc International) at 1 cell/well or 10 cells/well. The CTLs were cultured with two types of Mitomycin C-treated human B lymphoblastoid cell lines (1×10^4 cells/well each) in a total of 150 micro-l/well 5% ABS/AIM-V medium with an anti-CD3 antibody (final concentration: 30 ng/ml) and IL-2 (final concentration: 125 IU/ml). Ten days later, 50 micro-l 5% ABS/AIM-V medium containing 500 IU/ml IL-2 was added to the culture.\nPeptide-pulsed C1R-A01 (1×10^4 cells/well) was prepared as the target cell. The IFN-gamma ELISPOT assay and IFN-gamma ELISA were performed according to the assay kit manufacturer's manual."}, "[2]": {"test_system": "target cells (C1R-A33) pulsed with peptide", "assay": "IFN-gamma ELISA of CTL lines (HLA-A*33:03)", "assay_type": "cell-based, human", "settings": "CTL line against peptide-pulsed C1R-A33", "description": "CTLs were propagated using methods similar to those reported by Riddell et al. (Walter E A et al., N Engl J Med 1995, 333(16): 1038-44; Riddell S R et al., Nat Med 1996, 2(2): 216-23). The CTLs were cultured in 25 ml 5% ABS/AIM-V medium together with two types of Mitomycin C-treated human B lymphoblastoid cell lines (5×10^6 cells/25 ml medium each) and an anti-CD3 antibody (final concentration: 40 ng/ml). On the day after beginning of the culturing, IL-2 (final concentration: 120 IU/ml) was added to the culture. On days 5, 8 and 11, the medium was changed to a 5% ABS/AIM-V medium containing IL-2 (final concentration: 30 IU/ml) (Tanaka H et al., Br J Cancer 2001, 84(1): 94-9; Umano Y et al., Br J Cancer 2001, 84(8): 1052-7; Uchida N et al., Clin Cancer Res 2004, 10(24): 8577-86; Suda T et al., Cancer Sci 2006, 97(5): 411-9; Watanabe T et al., Cancer Sci 2005, 96(8): 498-506).\n(§2) Peptide-pulsed C1R-A33 (1×10^4 cells/well) was prepared as the target cell. The IFN-gamma ELISPOT assay and IFN-gamma ELISA were performed according to the assay kit manufacturer's manual."}, "[3]": {"test_system": "target cells (C1R-A33) pulsed with peptide", "assay": "IFN-gamma ELISA of CTL clones established by limiting dilution (HLA-A*33:03)", "assay_type": "cell-based, human", "settings": "CTL clone against peptide-pulsed C1R-A33", "description": "as §1, §2"}, "[4]": {"test_system": "COS7 cells expressing FOXM1 and HLA-A*33:03", "assay": "IFN-gamma production of CTL clone against target cells expressing FOXM1 and HLA-A*33:03", "assay_type": "cell-based, African green monkey", "from_the_text": "A cDNA encoding the FOXM1 or HLA-A*33:03 gene was amplified by PCR. The PCR-amplified product was each incorporated into an expression vector. Either or both of the FOXM1 gene-expressing vector and the HLA-A*33:03 gene-expressing vector were introduced into COS7 cells, which is a cell line negative for HLA, using Lipofectamine 2000 (Invitrogen). On the day after gene introduction, COS7 cells were detached and harvested using versene (Invitrogen), and used as the target cell for confirmation of IFN-gamma production (5×10^4 cells/well).\nIFN-gamma production of the FOXM1-A33-9-308 (SEQ ID NO: 2)-specific CTL clone against target cells expressing FOXM1 and HLA-A*33:03 was investigated. COS7 cells expressing both FOXM1 and HLA-A*33:03 were prepared as the target cell. COS7 cells expressing either one of FOXM1 and HLA-A*33:03 were prepared as the negative control cell. […] This clearly proves that FOXM1-A33-9-308 (SEQ ID NO: 2) is a peptide generated by antigen processing, and is presented on the cell surface with the HLA-A*33:03 molecule and recognized by CTLs."}},
  "note": "Entries after “also recorded” stand apart in the source; their conditions may differ.",
  "data": [
    {"sequence": "KTELPLGARR (a peptide derived from FOXM1) [SEQ ID NO: 61]", "values": [
      {"measurement": "peptide-specific IFN-gamma production (ELISPOT)", "setting": "peptide-pulsed C1R-A01", "value": "observed"}
    ]},
    {"sequence": "ASLMSSELAR (a peptide derived from FOXM1) [SEQ ID NO: 46]", "values": [
      {"measurement": "peptide-specific IFN-gamma production (ELISPOT)", "setting": "peptide-pulsed C1R-A33", "value": "observed"}
    ]},
    {"sequence": "VSERPPYSY (a peptide derived from FOXM1) [SEQ ID NO: 48]", "values": [
      {"measurement": "peptide-specific IFN-gamma production of CTL clone (ELISA)", "setting": "[1]", "value": "showed a peptide-specific IFN-gamma production"}
    ]},
    {"sequence": "MSSELARHSK (a peptide derived from FOXM1) [SEQ ID NO: 39]", "values": [
      {"measurement": "IFN-gamma production by the CTL line (ELISA)", "setting": "[2]; listed as FOXM1-A33-10-391", "value": "observed; also recorded: CTL lines that produce IFN-gamma in a peptide-specific manner were established"}
    ]},
    {"sequence": "WIEDHFPYFK (a peptide derived from FOXM1) [SEQ ID NO: 42]", "values": [
      {"measurement": "IFN-gamma production by the CTL line (ELISA)", "setting": "[2]; listed as FOXM1-A33-10-265", "value": "observed; also recorded: CTL lines that produce IFN-gamma in a peptide-specific manner were established"},
      {"measurement": "peptide-specific IFN-gamma production (ELISPOT)", "setting": "peptide-pulsed C1R-A01", "value": "not observed"}
    ]},
    {"sequence": "NLSLHDMFVR (a peptide derived from FOXM1) [SEQ ID NO: 25]", "values": [
      {"measurement": "peptide-specific IFN-gamma production (ELISPOT)", "setting": "peptide-pulsed C1R-A33", "value": "not observed"}
    ]},
    {"sequence": "WTIHPSANR (a peptide derived from FOXM1) [SEQ ID NO: 2]", "values": [
      {"measurement": "IFN-gamma production by the CTL line (ELISA)", "setting": "[2]; listed as FOXM1-A33-9-308", "value": "observed; also recorded: CTL lines that produce IFN-gamma in a peptide-specific manner were established"},
      {"measurement": "peptide-specific IFN-gamma production of CTL clone (ELISA)", "setting": "[3]; listed as FOXM1-A33-9-308", "value": "showed a peptide-specific IFN-gamma production"},
      {"measurement": "IFN-gamma production of peptide-specific CTL clone", "setting": "[4]; COS7 cells expressing both FOXM1 and HLA-A*33:03", "value": "showed IFN-gamma production"},
      {"measurement": "IFN-gamma production of peptide-specific CTL clone", "setting": "[4]; negative control: COS7 cells expressing either one of FOXM1 and HLA-A*33:03, listed as FOXM1-A33-9-308", "value": "a significant IFN-gamma production was not observed; also recorded: a significant IFN-gamma production was not shown"}
    ]},
    {"sequence": "AARDVNLPR (a peptide derived from FOXM1) [SEQ ID NO: 7]", "values": [
      {"measurement": "IFN-gamma production by the CTL line (ELISA)", "setting": "[2]; listed as FOXM1-A33-9-146", "value": "observed; also recorded: CTL lines that produce IFN-gamma in a peptide-specific manner were established"},
      {"measurement": "peptide-specific IFN-gamma production of CTL clone (ELISA)", "setting": "[3]; listed as FOXM1-A33-9-146", "value": "showed a peptide-specific IFN-gamma production"}
    ]},
    {"sequence": "SLSNIQWLR (a peptide derived from FOXM1) [SEQ ID NO: 1]", "values": [
      {"measurement": "peptide-specific IFN-gamma production (ELISPOT)", "setting": "peptide-pulsed C1R-A33", "value": "observed"}
    ]}
  ]
}
